In patent US8957078B2, “Compounds useful as inhibitors of ATR kinase” (Vertex Pharmaceuticals Incorporated, priority 2013, dated 2015):
pKi: −log10 of the molar value.

What was measured:
[1] = test system: HCT116 colorectal cancer cells; test: Cisplatin Sensitization Assay (96 h cell viability MTS); format: cell-based; conditions: concentration of compound required to reduce the IC50 of Cisplatin alone by at least 3-fold; HCT116, 96 h MTS
In short: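 HCT116 cells treated 96 h at 37 °C with compound and cisplatin together as a full matrix of 2-fold dilutions, each from 10 μM final top concentration. Viability by MTS, absorbance 490 nm. Value reported: compound concentration lowering cisplatin IC50 at least 3-fold.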

[2] = target: T1, ATR kinase (full-length ATR) (Homo sapiens, UniProt Q13535); test: ATR Inhibition Assay (radioactive-phosphate incorporation); format: biochemical; conditions: Ki(app); 5 nM full-length ATR, 10 μM ATP, 800 μM target peptide, 25° C.
T1 construct: in the presence of 5 nM full-length ATR
T1 sequence (Q13535 whole entry): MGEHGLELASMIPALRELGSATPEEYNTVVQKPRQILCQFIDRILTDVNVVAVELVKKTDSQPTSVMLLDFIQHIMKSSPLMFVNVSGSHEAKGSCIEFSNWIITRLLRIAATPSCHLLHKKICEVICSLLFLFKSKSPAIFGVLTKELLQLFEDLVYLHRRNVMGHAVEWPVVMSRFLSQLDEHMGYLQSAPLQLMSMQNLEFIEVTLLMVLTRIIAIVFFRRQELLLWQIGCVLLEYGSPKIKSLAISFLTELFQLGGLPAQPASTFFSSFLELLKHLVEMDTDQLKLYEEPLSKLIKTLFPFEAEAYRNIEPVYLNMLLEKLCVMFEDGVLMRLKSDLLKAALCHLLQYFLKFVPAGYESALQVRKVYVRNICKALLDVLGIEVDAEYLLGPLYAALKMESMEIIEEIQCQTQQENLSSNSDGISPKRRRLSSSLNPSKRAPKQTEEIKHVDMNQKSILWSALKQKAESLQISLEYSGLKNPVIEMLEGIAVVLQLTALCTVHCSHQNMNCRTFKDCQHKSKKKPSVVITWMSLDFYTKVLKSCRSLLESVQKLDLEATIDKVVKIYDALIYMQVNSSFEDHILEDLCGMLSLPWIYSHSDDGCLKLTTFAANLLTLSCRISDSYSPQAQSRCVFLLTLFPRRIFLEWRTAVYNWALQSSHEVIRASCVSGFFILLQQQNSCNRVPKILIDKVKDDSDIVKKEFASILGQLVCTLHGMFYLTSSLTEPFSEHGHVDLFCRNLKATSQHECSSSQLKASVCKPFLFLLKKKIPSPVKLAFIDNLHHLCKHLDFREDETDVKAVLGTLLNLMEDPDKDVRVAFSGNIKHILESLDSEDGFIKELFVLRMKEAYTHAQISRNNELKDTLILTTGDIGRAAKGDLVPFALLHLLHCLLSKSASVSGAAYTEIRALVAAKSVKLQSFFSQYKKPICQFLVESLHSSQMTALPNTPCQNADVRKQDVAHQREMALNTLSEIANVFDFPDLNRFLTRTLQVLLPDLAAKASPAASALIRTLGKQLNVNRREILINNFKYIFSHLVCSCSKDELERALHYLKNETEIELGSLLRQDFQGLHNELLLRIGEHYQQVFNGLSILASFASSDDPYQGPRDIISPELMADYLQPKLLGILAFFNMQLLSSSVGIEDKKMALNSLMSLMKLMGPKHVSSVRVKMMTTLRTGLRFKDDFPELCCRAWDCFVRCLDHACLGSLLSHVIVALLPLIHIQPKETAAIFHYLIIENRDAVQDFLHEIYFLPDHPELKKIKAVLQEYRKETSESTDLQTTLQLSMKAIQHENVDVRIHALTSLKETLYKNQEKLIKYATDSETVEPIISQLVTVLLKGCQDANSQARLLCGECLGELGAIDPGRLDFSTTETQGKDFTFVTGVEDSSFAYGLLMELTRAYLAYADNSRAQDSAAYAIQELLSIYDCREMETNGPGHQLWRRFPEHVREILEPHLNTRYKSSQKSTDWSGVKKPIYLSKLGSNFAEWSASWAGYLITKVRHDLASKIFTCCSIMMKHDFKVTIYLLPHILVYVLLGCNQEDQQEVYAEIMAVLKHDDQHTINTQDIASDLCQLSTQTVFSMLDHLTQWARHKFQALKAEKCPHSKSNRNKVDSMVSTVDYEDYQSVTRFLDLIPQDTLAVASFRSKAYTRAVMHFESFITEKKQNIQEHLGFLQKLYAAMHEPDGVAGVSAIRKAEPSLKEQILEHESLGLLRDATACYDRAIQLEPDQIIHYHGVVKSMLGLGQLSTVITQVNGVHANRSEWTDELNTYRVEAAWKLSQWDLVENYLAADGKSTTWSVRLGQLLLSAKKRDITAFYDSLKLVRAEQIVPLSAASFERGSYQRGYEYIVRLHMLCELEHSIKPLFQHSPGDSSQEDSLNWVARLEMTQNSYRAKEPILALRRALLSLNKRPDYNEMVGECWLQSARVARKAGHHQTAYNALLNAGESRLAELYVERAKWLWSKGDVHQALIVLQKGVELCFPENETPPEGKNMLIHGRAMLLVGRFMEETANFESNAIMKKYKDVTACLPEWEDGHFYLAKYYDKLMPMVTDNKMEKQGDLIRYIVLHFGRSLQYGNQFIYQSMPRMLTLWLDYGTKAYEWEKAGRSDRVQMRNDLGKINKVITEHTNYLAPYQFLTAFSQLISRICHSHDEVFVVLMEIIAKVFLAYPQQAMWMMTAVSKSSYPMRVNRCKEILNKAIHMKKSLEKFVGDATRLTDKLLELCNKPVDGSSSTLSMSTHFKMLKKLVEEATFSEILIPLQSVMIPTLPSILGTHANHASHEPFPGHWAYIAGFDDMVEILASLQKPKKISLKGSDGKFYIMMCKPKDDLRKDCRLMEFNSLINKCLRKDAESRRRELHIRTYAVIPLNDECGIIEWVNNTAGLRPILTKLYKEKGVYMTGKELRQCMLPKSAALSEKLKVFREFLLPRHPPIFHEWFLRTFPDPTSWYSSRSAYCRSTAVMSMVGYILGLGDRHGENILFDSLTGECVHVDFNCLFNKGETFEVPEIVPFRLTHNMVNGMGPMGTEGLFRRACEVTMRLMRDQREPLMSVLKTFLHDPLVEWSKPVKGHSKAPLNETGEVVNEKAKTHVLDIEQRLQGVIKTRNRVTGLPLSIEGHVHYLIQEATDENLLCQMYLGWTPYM

Row | Compound | Cisplatin Sensitization Assay [1] | pKi [2]
1 | Cc1nsc(NC(=O)c2c(N)nn3cc(F)cnc23)c1N1CCCC1 [I-E-21, 2-amino-6-fluoro-N-(3-methyl-4-(pyrrolidin-1-yl)isothiazol-5-yl)pyrazolo[1,5-a]pyrimidine-3-carboxamide] | ++ (Compounds with a Cisplatin sensitization value >0.02 μM but <0.2 μM are marked with “++.”) | 6.00 to 8.00
2 | Cc1nncc(NC(=O)c2c(N)nn3cc(F)cnc23)c1N1CCC(C(=O)N2CCN(C)CC2)CC1 [I-B-14, 2-amino-6-fluoro-N-(6-methyl-5-(4-(4-methylpiperazine-1-carbonyl)piperidin-1-yl)pyridazin-4-yl)pyrazolo[1,5-a]pyrimidine-3-carboxamide] | +++ (Compounds with a Cisplatin sensitization value of <0.02 μM are marked with “+++.”) | 6.00 to 8.00
3 | CN1CCN(Cc2ccc(-c3cnncc3NC(=O)c3c(N)nn4cc(F)cnc34)cc2)CC1 [I-B-7, 2-amino-6-fluoro-N-(5-(4-((4-methylpiperazin-1-yl)methyl)phenyl)pyridazin-4-yl)pyrazolo[1,5-a]pyrimidine-3-carboxamide] | +++ (Compounds with a Cisplatin sensitization value of <0.02 μM are marked with “+++.”) | 6.00 to 8.00
4 | CC(C)(C)N1CCN(C(=O)C2CCN(c3cnncc3NC(=O)c3c(N)nn4cc(F)cnc34)CC2)CC1 [I-B-10, 2-amino-N-(5-(4-(4-(tert-butyl)piperazine-1-carbonyl)piperidin-1-yl)pyridazin-4-yl)-6-fluoropyrazolo[1,5-a]pyrimidine-3-carboxamide] | ++ (Compounds with a Cisplatin sensitization value >0.02 μM but <0.2 μM are marked with “++.”) | 6.00 to 8.00
5 | Cc1nsc(NC(=O)c2c(N)nn3cc(F)cnc23)c1C1=CCOCC1 [I-E-4, 2-amino-N-(4-(3,6-dihydro-2H-pyran-4-yl)-3-methylisothiazol-5-yl)-6-fluoropyrazolo[1,5-a]pyrimidine-3-carboxamide] | +++ (Compounds with a Cisplatin sensitization value of <0.02 μM are marked with “+++.”) | > 8.00
6 | Cc1ncccc1-c1cnncc1NC(=O)c1c(N)nn2cc(F)cnc12 [I-B-4, 2-amino-6-fluoro-N-(5-(2-methylpyridin-3-yl)pyridazin-4-yl)pyrazolo[1,5-a]pyrimidine-3-carboxamide] | +++ (Compounds with a Cisplatin sensitization value of <0.02 μM are marked with “+++.”) | 6.00 to 8.00
7 | Cc1ncc(NC(=O)c2c(N)nn3cc(F)cnc23)n1-c1ccccc1 [I-D-6, 2-amino-6-fluoro-N-(2-methyl-1-phenyl-1H-imidazol-5-yl)pyrazolo[1,5-a]pyrimidine-3-carboxamide] | +++ (Compounds with a Cisplatin sensitization value of <0.02 μM are marked with “+++.”) | 6.00 to 8.00
8 | CN1CCN(C(=O)C2CCN(c3cnncc3NC(=O)c3c(N)nn4cc(F)cnc34)CC2)CC1 [I-B-5, 2-amino-6-fluoro-N-(5-(4-(4-methylpiperazine-1-carbonyl)piperidin-1-yl)pyridazin-4-yl)pyrazolo[1,5-a]pyrimidine-3-carboxamide] | ++ (Compounds with a Cisplatin sensitization value >0.02 μM but <0.2 μM are marked with “++.”) | 6.00 to 8.00
9 | Nc1nn2cc(F)cnc2c1C(=O)Nc1ccncc1N1CCC(C(=O)N2CCN(C3COC3)CC2)CC1 [I-C-9, 2-amino-6-fluoro-N-(3-(4-(4-(oxetan-3-yl)piperazine-1-carbonyl)piperidin-1-yl)pyridin-4-yl)pyrazolo[1,5-a]pyrimidine-3-carboxamide] | ++ (Compounds with a Cisplatin sensitization value >0.02 μM but <0.2 μM are marked with “++.”) | 6.00 to 8.00
10 | Nc1nn2cc(F)cnc2c1C(=O)Nc1cnncc1N1CCCCC1 [I-B-9, 2-amino-6-fluoro-N-(5-(piperidin-1-yl)pyridazin-4-yl)pyrazolo[1,5-a]pyrimidine-3-carboxamide] | +++ (Compounds with a Cisplatin sensitization value of <0.02 μM are marked with “+++.”) | 6.00 to 8.00
11 | Nc1nn2cc(F)cnc2c1C(=O)Nc1cnncc1N1CCC(F)CC1 [I-B-20, 2-amino-6-fluoro-N-(5-(4-fluoropiperidin-1-yl)pyridazin-4-yl)pyrazolo[1,5-a]pyrimidine-3-carboxamide] | +++ (Compounds with a Cisplatin sensitization value of <0.02 μM are marked with “+++.”) | 6.00 to 8.00
12 | Nc1nn2cc(F)cnc2c1C(=O)Nc1cnncc1N1CCC(C(=O)N2CC(F)C2)CC1 [I-B-22, 2-amino-6-fluoro-N-(5-(4-(3-fluoroazetidine-1-carbonyl)piperidin-1-yl)pyridazin-4-yl)pyrazolo[1,5-a]pyrimidine-3-carboxamide] | +++ (Compounds with a Cisplatin sensitization value of <0.02 μM are marked with “+++.”) | > 8.00
13 | Nc1nn2cc(F)cnc2c1C(=O)Nc1cnncc1N1CCN(C2COC2)CC1 [I-B-2, 2-amino-6-fluoro-N-(5-(4-(oxetan-3-yl)piperazin-1-yl)pyridazin-4-yl)pyrazolo[1,5-a]pyrimidine-3-carboxamide] | ++ (Compounds with a Cisplatin sensitization value >0.02 μM but <0.2 μM are marked with “++.”) | 6.00 to 8.00
14 | CN1CCN(c2cnncc2NC(=O)c2c(N)nn3cc(F)cnc23)CC1 [I-B-1, 2-amino-6-fluoro-N-(5-(4-methylpiperazin-1-yl)pyridazin-4-yl)pyrazolo[1,5-a]pyrimidine-3-carboxamide] | ++ (Compounds with a Cisplatin sensitization value >0.02 μM but <0.2 μM are marked with “++.”) | 6.00 to 8.00
15 | N#CCc1cnc2c(C(=O)Nc3cncn3Cc3ccccc3)c(N)nn2c1 [I-D-1, 2-amino-N-(1-benzyl-1H-imidazol-5-yl)-6-(cyanomethyl)pyrazolo[1,5-a]pyrimidine-3-carboxamide] | +++ (Compounds with a Cisplatin sensitization value of <0.02 μM are marked with “+++.”) | > 8.00
16 | Cc1nsc(NC(=O)c2c(N)nn3cc(F)cnc23)c1-c1ccnn1C [I-E-8] | +++ (Compounds with a Cisplatin sensitization value of <0.02 μM are marked with “+++.”) | 6.00 to 8.00
17 | COCc1c(C)nsc1NC(=O)c1c(N)nn2cc(F)cnc12 [I-E-20, 2-amino-6-fluoro-N-(4-(methoxymethyl)-3-methylisothiazol-5-yl)pyrazolo[1,5-a]pyrimidine-3-carboxamide] | +++ (Compounds with a Cisplatin sensitization value of <0.02 μM are marked with “+++.”) | 6.00 to 8.00
18 | Cc1cnccc1-c1cnccc1NC(=O)c1c(N)nn2cc(F)cnc12 [I-C-6, 2-amino-6-fluoro-N-(3′-methyl-[3,4′-bipyridin]-4-yl)pyrazolo[1,5-a]pyrimidine-3-carboxamide] | ++ (Compounds with a Cisplatin sensitization value >0.02 μM but <0.2 μM are marked with “++.”) | 6.00 to 8.00
19 | CN1CCN(CC2CCN(c3cnncc3NC(=O)c3c(N)nn4cc(F)cnc34)CC2)CC1 [I-B-11, 2-amino-6-fluoro-N-(5-(4-((4-methylpiperazin-1-yl)methyl)piperidin-1-yl)pyridazin-4-yl)pyrazolo[1,5-a]pyrimidine-3-carboxamide] | ++ (Compounds with a Cisplatin sensitization value >0.02 μM but <0.2 μM are marked with “++.”) | 6.00 to 8.00
20 | Nc1nn2cc(F)cnc2c1C(=O)Nc1cncn1-c1ccccc1 [I-D-2, 2-amino-6-fluoro-N-(1-phenyl-1H-imidazol-5-yl)pyrazolo[1,5-a]pyrimidine-3-carboxamide] | +++ (Compounds with a Cisplatin sensitization value of <0.02 μM are marked with “+++.”) | 6.00 to 8.00
21 | Cc1nsc(NC(=O)c2c(N)nn3cc(F)cnc23)c1-c1cccnc1 [I-E-3, 2-amino-6-fluoro-N-(3-methyl-4-(pyridin-3-yl)isothiazol-5-yl)pyrazolo[1,5-a]pyrimidine-3-carboxamide] | +++ (Compounds with a Cisplatin sensitization value of <0.02 μM are marked with “+++.”) | 6.00 to 8.00
22 | CC(=O)N1CC=C(c2c(C)nsc2NC(=O)c2c(N)nn3cc(F)cnc23)CC1 [I-E-9, N-(4-(1-acetyl-1,2,3,6-tetrahydropyridin-4-yl)-3-methylisothiazol-5-yl)-2-amino-6-fluoropyrazolo[1,5-a]pyrimidine-3-carboxamide] | +++ (Compounds with a Cisplatin sensitization value of <0.02 μM are marked with “+++.”) | 6.00 to 8.00
23 | CN1CCC(Oc2ncncc2NC(=O)c2c(N)nn3cc(Cl)cnc23)CC1 [I-A-6, 2-amino-6-chloro-N-(4-((1-methylpiperidin-4-yl)oxy)pyrimidin-5-yl)pyrazolo[1,5-a]pyrimidine-3-carboxamide] | ++ (Compounds with a Cisplatin sensitization value >0.02 μM but <0.2 μM are marked with “++.”) | 5.30 to 6.00
